{"source": "patent US20040029808A1", "about": "“Peptides capable of functioning as mimotopes for hormonal analytes” (priority 2000, published 2004)", "key": {"[1]": {"tested_on": "MAb4155 (anti-estrone-3-glucuronide monoclonal antibody)", "assay": "ELISA testing of peptides on pins: binding of MAb4155 to peptides", "set-up": "species or system mouse", "procedure": "Monoclonal antibodies MAb 4155 were expressed from the 4155 monoclonal cell line. The 4155 monoclonal cell line was prepared and screened according to the methods described by Gani et al., (3 Steroid Biochem. Molec. Biol. 48, 277-282 (1994)).\nPeptides were synthesised in duplicate or triplicate from the C-terminus by solid phase peptide synthesis on the heads of polyethylene pins (Geysen et al., Strategies for epitope analysis using peptide synthesis. J. Immunol. Methods 102, 259-274 (1987)) using a Multipin Peptide Synthesis Kit (Chiron Mimotopes, Victoria, Australia). Pins were arranged in a plastic holder in the format of a 96-well microtitre plate.\nAll incubation steps were performed at room temperature (18-25° C.) by lowering the pins reagents dispensed into 96-well microtitre plates (Becton Dickinson, Calif., USA). Washing was accomplished by placing the block of pins in a bath of phosphate buffered saline (PBS) containing Tween 20™ (0.01% v/v) with agitation for four cycles of 5 min. Non-specific binding sites on the surface of the pins were blocked by incubating in PBS containing casein (1% w/v, 175 μl/well) for 1 h. MAb4155 was diluted in blocking buffer and the pins were incubated in the antibody solution (150 μl/well) for 18 h at 4° C. After washing, the pins were incubated in horseradish peroxidase (HRP)-conjugated rabbit anti-mouse immunoglobulin (Dako, High Wycombe, UK, 1/1000 in blocking buffer for 1 h at 150 μl/well). The pins were washed once more and then incubated in ABTS [2,2′-azino-bis (3ethylbenzothiazoline-6-sulphonic acid)] working substrate for 15 min (150 μl/well). ABTS was prepared as a 0.033% (w/v) solution in 0.1M citrate phosphate buffer (pH 4.5) with 33% hydrogen peroxide (1 μl/ml). Colour development was terminated by removal of the pins from the wells and was measured spectrophotometrically at 405 nm using a Milenia Kinetic Analyser™ (DPC, Llanberis, Wales).\nIn order to identify core binding regions, a set of peptides was synthesised on the heads of pins based on SEQ ID NO:2. […] In addition, a set of peptides was synthesised in which each residue of the lead sequence was replaced by Ala (or Gly if Ala already existed at that position) in order to assess the contribution of each residue to the binding event.\nAdditional core binding sequences were identified utilizing the amino acid sequence SEQ ID NO:8 and investigating the effect of systematic replacement of each residue by the other 19 naturally occurring amino acids using known techniques as exemplified in Verhoeyen et al., Construction of a reshaped HMFG1 antibody and comparison of its fine specificity with that of the parent mouse antibody. Immunology, 78, 364-370 (1993)."}, "[2]": {"tested_on": "MAb4155 (anti-estrone-3-glucuronide monoclonal antibody)", "assay": "ELISA testing of peptides on pins: binding of MAb4155 to peptides", "set-up": "species or system mouse", "conditions": "D-isomer reverse sequence versus L-isomer parent"}, "[3]": {"conditions": "Table 1, peptides on pins based on SEQ ID NO:2 (truncations, Ala/Gly replacement)"}, "[4]": {"conditions": "Table 2, replacement analogues of SEQ ID NO:8, setting SEQ ID NO:8 to a Relative Binding of 100"}}, "note": "Ends that are not written are not given here."}
{"substance": "AGERGLFED [SEQ ID NO:13]", "values": [{"measurement": "Relative Binding of MAb4155 to peptides as measured by ELISA", "setting": "[1]; [3]", "value": 2.0}]}
{"substance": "Asp-Tyr-Phe-Leu-Gly (DYFLG) [SEQ ID NO:37]", "values": [{"measurement": "Binding affinity relative to the parent sequence (SEQ ID NO:28)", "setting": "[2]", "value": "equivalent"}]}
{"substance": "AERGLFED [SEQ ID NO:11]", "values": [{"measurement": "Relative Binding of MAb4155 to peptides as measured by ELISA", "setting": "[1]; [3]", "value": 1.5}]}
{"substance": "Ala-Ala-Glu-Arg (AAER) [SEQ ID NO:75]", "values": [{"measurement": "Relative Binding of MAb4155 to peptides as measured by ELISA", "setting": "[1]; [3]", "value": 0.8}]}
{"substance": "Gly-Phe-Phe-Glu-Asp (GFFED) [SEQ ID NO:18]", "values": [{"measurement": "Relative Binding of MAb4155 to peptides as measured by ELISA", "setting": "[1]; [4]", "value": 200}]}
{"substance": "Gly-Leu-Trp-Glu-Asp (GLWED) [SEQ ID NO:21]", "values": [{"measurement": "Relative Binding of MAb4155 to peptides as measured by ELISA", "setting": "[1]; [4]", "value": 207}]}
{"substance": "AAARGLFED [SEQ ID NO:14]", "values": [{"measurement": "Relative Binding of MAb4155 to peptides as measured by ELISA", "setting": "[1]; [3]", "value": 1.5}]}
{"substance": "ERGLFED [SEQ ID NO:10]", "values": [{"measurement": "Relative Binding of MAb4155 to peptides as measured by ELISA", "setting": "[1]; [3]", "value": 1.8}]}
{"substance": "Gly-Leu-Phe-Asp-Asp (GLFDD) [SEQ ID NO:23]", "values": [{"measurement": "Relative Binding of MAb4155 to peptides as measured by ELISA", "setting": "[1]; [4]", "value": 121}]}
{"substance": "Gly-Leu-Phe-Cys-Asp (GLFCD) [SEQ ID NO:22]", "values": [{"measurement": "Relative Binding of MAb4155 to peptides as measured by ELISA", "setting": "[1]; [4]", "value": 335}]}
{"substance": "Gly-Trp-Phe-Glu-Asp (GWFED) [SEQ ID NO:19]", "values": [{"measurement": "Relative Binding of MAb4155 to peptides as measured by ELISA", "setting": "[1]; [4]", "value": 343}]}
{"substance": "AAERGLFAD [SEQ ID NO:79]", "values": [{"measurement": "Relative Binding of MAb4155 to peptides as measured by ELISA", "setting": "[1]; [3]", "value": 1.8}]}
{"substance": "AAERGLFE [SEQ ID NO:71]", "values": [{"measurement": "Relative Binding of MAb4155 to peptides as measured by ELISA", "setting": "[1]; [3]", "value": 1.0}]}
{"substance": "Ala-Ala-Glu-Arg-Gly (AAERG) [SEQ ID NO:74]", "values": [{"measurement": "Relative Binding of MAb4155 to peptides as measured by ELISA", "setting": "[1]; [3]", "value": 1.0}]}
{"substance": "Gly-Leu-Phe-Leu-Asp (GLFLD) [SEQ ID NO:26]", "values": [{"measurement": "Relative Binding of MAb4155 to peptides as measured by ELISA", "setting": "[1]; [4]", "value": 138}]}
{"substance": "Leu-Phe-Glu-Asp (LFED) [SEQ ID NO:7]", "values": [{"measurement": "Relative Binding of MAb4155 to peptides as measured by ELISA", "setting": "[1]; [3]", "value": 1.9}]}
{"substance": "AAERGL [SEQ ID NO:73]", "values": [{"measurement": "Relative Binding of MAb4155 to peptides as measured by ELISA", "setting": "[1]; [3]", "value": 1.0}]}
{"substance": "AAERGLFEA [SEQ ID NO:80]", "values": [{"measurement": "Relative Binding of MAb4155 to peptides as measured by ELISA", "setting": "[1]; [3]", "value": 1.1}]}
{"substance": "AAERGAFED [SEQ ID NO:17]", "values": [{"measurement": "Relative Binding of MAb4155 to peptides as measured by ELISA", "setting": "[1]; [3]", "value": 1.6}]}
{"substance": "AAERGLF [SEQ ID NO:72]", "values": [{"measurement": "Relative Binding of MAb4155 to peptides as measured by ELISA", "setting": "[1]; [3]", "value": 1.0}]}
{"substance": "Gly-Tyr-Phe-Glu-Asp (GYFED) [SEQ ID NO:20]", "values": [{"measurement": "Relative Binding of MAb4155 to peptides as measured by ELISA", "setting": "[1]; [4]", "value": 220}]}
{"substance": "Gly-Leu-Phe-Glu-Asp (GLFED) [SEQ ID NO:8]", "values": [{"measurement": "Relative Binding of MAb4155 to peptides as measured by ELISA", "setting": "[1]; [3]", "value": 2.2}, {"measurement": "Relative Binding of MAb4155 to peptides as measured by ELISA", "setting": "[1]; [4]", "value": 100}]}
{"substance": "Phe-Glu-Asp (FED) [SEQ ID NO:6]", "values": [{"measurement": "Relative Binding of MAb4155 to peptides as measured by ELISA", "setting": "[1]; [3]", "value": 2.0}]}
{"substance": "Gly-Leu-Phe-Glu-Trp (GLFEW) [SEQ ID NO:34]", "values": [{"measurement": "Relative Binding of MAb4155 to peptides as measured by ELISA", "setting": "[1]; [4]", "value": 594}]}
{"substance": "AAERALFED [SEQ ID NO:16]", "values": [{"measurement": "Relative Binding of MAb4155 to peptides as measured by ELISA", "setting": "[1]; [3]", "value": 1.5}]}
{"substance": "Gly-Leu-Phe-Glu-Val (GLFEV) [SEQ ID NO:33]", "values": [{"measurement": "Relative Binding of MAb4155 to peptides as measured by ELISA", "setting": "[1]; [4]", "value": 177}]}
{"substance": "Gly-Leu-Phe-Glu-Cys (GLFEC) [SEQ ID NO:29]", "values": [{"measurement": "Relative Binding of MAb4155 to peptides as measured by ELISA", "setting": "[1]; [4]", "value": 296}]}
{"substance": "AAEAGLFED [SEQ ID NO:15]", "values": [{"measurement": "Relative Binding of MAb4155 to peptides as measured by ELISA", "setting": "[1]; [3]", "value": 2.0}]}
{"substance": "Gly-Leu-Phe-Trp-Asp (GLFWD) [SEQ ID NO:27]", "values": [{"measurement": "Relative Binding of MAb4155 to peptides as measured by ELISA", "setting": "[1]; [4]", "value": 578}]}
{"substance": "Gly-Leu-Phe-Ile-Asp (GLFID) [SEQ ID NO:25]", "values": [{"measurement": "Relative Binding of MAb4155 to peptides as measured by ELISA", "setting": "[1]; [4]", "value": 169}]}
{"substance": "RGLFED [SEQ ID NO:9]", "values": [{"measurement": "Relative Binding of MAb4155 to peptides as measured by ELISA", "setting": "[1]; [3]", "value": 1.6}]}
{"substance": "GAERGLFED [SEQ ID NO:12]", "values": [{"measurement": "Relative Binding of MAb4155 to peptides as measured by ELISA", "setting": "[1]; [3]", "value": 1.9}]}
{"substance": "Gly-Leu-Phe-Glu-Ile (GLFEI) [SEQ ID NO:31]", "values": [{"measurement": "Relative Binding of MAb4155 to peptides as measured by ELISA", "setting": "[1]; [4]", "value": 174}]}
{"substance": "AAERGLFED [SEQ ID NO:2]", "values": [{"measurement": "Relative Binding of MAb4155 to peptides as measured by ELISA", "setting": "[1]; [3]", "value": 2.0}]}
{"substance": "Gly-Leu-Phe-Phe-Asp (GLFFD) [SEQ ID NO:24]", "values": [{"measurement": "Relative Binding of MAb4155 to peptides as measured by ELISA", "setting": "[1]; [4]", "value": 184}]}
{"substance": "Gly-Leu-Phe-Glu-Phe (GLFEF) [SEQ ID NO:30]", "values": [{"measurement": "Relative Binding of MAb4155 to peptides as measured by ELISA", "setting": "[1]; [4]", "value": 204}]}
{"substance": "AAERGLAED [SEQ ID NO:78]", "values": [{"measurement": "Relative Binding of MAb4155 to peptides as measured by ELISA", "setting": "[1]; [3]", "value": 0.8}]}
{"substance": "Gly-Leu-Phe-Tyr-Asp (GLFYD) [SEQ ID NO:28]", "values": [{"measurement": "Relative Binding of MAb4155 to peptides as measured by ELISA", "setting": "[1]; [4]", "value": 252}]}
{"substance": "Gly-Leu-Phe-Glu-Leu (GLFEL) [SEQ ID NO:32]", "values": [{"measurement": "Relative Binding of MAb4155 to peptides as measured by ELISA", "setting": "[1]; [4]", "value": 168}]}
{"substance": "Ala-Ala-Glu (AAE) [SEQ ID NO:76]", "values": [{"measurement": "Relative Binding of MAb4155 to peptides as measured by ELISA", "setting": "[1]; [3]", "value": 0.9}]}
{"substance": "Gly-Leu-Phe-Glu-Tyr (GLFEY) [SEQ ID NO:35]", "values": [{"measurement": "Relative Binding of MAb4155 to peptides as measured by ELISA", "setting": "[1]; [4]", "value": 386}]}
